Experimental data reported in publication PMC9038204, “SNX27–Retromer directly binds ESCPE-1 to transfer cargo proteins during endosomal recycling” (PLoS Biology, 2022).
Where no end group is shown, it is not given here.

Columns and labels:
[1] = system: HeLa cells, surface GLUT1; test: Surface biotinylation, cell surface level of GLUT1; type: cell-based
Protocol: (§1) For western blotting, cells were lysed in PBS with 1% (v/v) Triton X-100 and protease inhibitor cocktail. The protein concentration was determined with a BCA assay kit (Thermo Fisher Scientific, USA), and equal amounts were resolved on NuPAGE 4% to 12% precast gels (Invitrogen, USA). Blotting was performed onto polyvinylidene fluoride membranes (Immobilon-FL; EMD Millipore, USA) followed by detection using the Odyssey infrared scanning system (LI-COR Biosciences, USA). For GFP-based immunoprecipitations, HEK-293T cells were lysed 48 hours after transfection in immunoprecipitation buffer (50 mM Tris-HCl, 0.5% (v/v) NP-40, and Roche protease inhibitor cocktail) and subjected to GFP trap (ChromoTek, Germany). Immunoblotting was performed using standard procedures. Detection was performed on an Odyssey infrared scanning system (LI-COR Biosciences) using fluorescently labeled secondary antibodies. In using the Odyssey, we routinely performed western blot analysis where a single blot is simultaneously probed with antibodies against 2 proteins of interest (distinct antibody species) followed by visualization with the corresponding secondary antibodies conjugated to distinct spectral dyes.
(§2) For surface biotinylation experiments, fresh Sulfo-NHS-SS Biotin (Thermo Fisher Scientific, #21217) was dissolved in ice-cold PBS at pH 7.8 at a final concentration of 0.2 mg/ml. Cells were washed twice in ice-cold PBS and placed on ice to slow down the endocytic pathway. Next, cells were incubated with the biotinylation reagent for 30 minutes at 4°C followed by incubation in TBS for 10 minutes to quench the unbound biotin. The cells were then lysed in lysis buffer and subjected to Streptavidin beads-based affinity isolation (GE Healthcare, USA).

[2] = system: HeLa cells, surface ITGA5; test: Surface biotinylation, cell surface level of ITGA5; type: cell-based
Protocol: as §1, §2

hSNX27FL R498D = molecular target: T1, hSNX27FL R498D (Homo sapiens, UniProt Q96L92, R498D); test: ITC, hSNX1 peptide 75-92 against hSNX27FL R498D; type: binding; conditions: 25°C, 600 μM SNX1_75-92 into 20 μM hSNX27FL R498D
T1 construct: FL, full-length; ITC, isothermal titration calorimetry; His-tag followed by a TEV cleavage site (N); made in house; host or cells: E. coli BL21 (DE3)
Source text: (§3) For bacterial expression, full-length mouse SNX1 with an amino-terminal His-tag (mSNX1FL hereafter) was cloned into the pMW172Kan vector [75], and the truncated mSNX1 construct containing residues 1 to 139 was cloned into pGEX4T-2 vector for expression as a thrombin-cleavable amino-terminal GST fusion protein. DNA encoding full-length mouse SNX27 (mSNX27FL hereafter) was inserted into the pMCSG7 vector [76] by the ligation-independent cloning (LIC) approach. Human SNX27 constructs, hSNX27FL, hSNX27FERM, and hSNX27FL single-site mutants R437D, K495D, K496D, R498D, and K501D were cloned into the pET-28a vector by GenScript and codon optimized for bacterial protein expression. An additional TEV cleavage site was inserted between the amino-terminal His-tag and hSNX27 coding sequences.
(§4) All microcalorimetry experiments were conducted at 25°C using a PEAQ ITC (Malvern, UK) in 50 mM HEPES (pH 7.5), 200 mM NaCl, 5% glycerol, and 1 mM β-ME (ITC buffer). […]
(§5) The ITC experiments were conducted with 1 injection of 0.4 μL followed by a series of 12 injections of 3.2 μL each with 180-second intervals and a stirring speed of 850 rpm. […] Data were analyzed with Malvern software package by fitting and normalized data to a single-site binding model, yielding the thermodynamic parameters Kd, ΔH, ΔG, and −TΔS for all binding experiments. […]

hSNX27FL K501D = molecular target: T2, hSNX27FL K501D (Homo sapiens, UniProt Q96L92, K501D); test: ITC, hSNX1 peptide 75-92 against hSNX27FL K501D; type: binding; conditions: 25°C, 600 μM SNX1_75-92 into 20 μM hSNX27FL K501D
T2 construct: FL, full-length; ITC, isothermal titration calorimetry; His-tag followed by a TEV cleavage site (N); made in house; host or cells: E. coli BL21 (DE3)
Source text: as §3, §4, §5

hSNX27FL K495D = molecular target: T3, hSNX27FL K495D (Homo sapiens, UniProt Q96L92, K495D); test: ITC, hSNX1 peptide 75-92 against hSNX27FL K495D; type: binding; conditions: 25°C, 600 μM SNX1_75-92 into 20 μM hSNX27FL K495D
T3 construct: FL, full-length; ITC, isothermal titration calorimetry; His-tag followed by a TEV cleavage site (N); made in house; host or cells: E. coli BL21 (DE3)
Source text: as §3, §4, §5

[3] = molecular target: T4, mSNX27FL preincubated with competing peptide (Mus musculus, UniProt Q3UHD6); test: Competitive ITC of hSNX2 16-33 and hSNX1 75-92 with mSNX27FL; type: binding; conditions: 25°C
T4 construct: DNA encoding full-length mouse SNX27 (mSNX27FL hereafter) was inserted into the pMCSG7 vector; made in house; host or cells: Escherichia coli BL21 CodonPlus (DE3)
Protocol: All microcalorimetry experiments were conducted at 25°C using a PEAQ ITC (Malvern, UK) in 50 mM HEPES (pH 7.5), 200 mM NaCl, 5% glycerol, and 1 mM β-ME (ITC buffer). All proteins were purified by SEC using the same buffer prior to ITC experiments to avoid buffer mismatches. To measure binding of SNX27 to SNX1 proteins, 800 μM of hSNX27FERM was titrated into 20 μM of GST-mSNX1_1-139 or His-SNX1FL. For the binding of SNX1 and SNX2 peptides to SNX27, peptides were diluted 10-fold to 800 μM in ITC buffer peptides and titrated into 20 μM SNX27FL proteins containing the same 1:10 ratio of peptide buffer (100 mM Tris-HCl, pH 10.6). […] For ITC experiment using SNX1_75-92 against hSNX27 wild-type and single-site mutants, 600 μM SNX1_75-92 peptide was titrated into 20 μM hSNX27 proteins.
The ITC experiments were conducted with 1 injection of 0.4 μL followed by a series of 12 injections of 3.2 μL each with 180-second intervals and a stirring speed of 850 rpm. The heat exchange of interactions was obtained through integrating the observed peaks and background correction by subtracting the heats of dilution. Data were analyzed with Malvern software package by fitting and normalized data to a single-site binding model, yielding the thermodynamic parameters Kd, ΔH, ΔG, and −TΔS for all binding experiments. […]

[4] = relative to HeLa = 100, mean of n = 3, Fig. 6D
[5] = relative to HeLa = 100, replicate n1, Fig. 6D
[6] = relative to HeLa = 100, replicate n2, Fig. 6D
[7] = relative to HeLa = 100, replicate n3, Fig. 6D

**Q.** For +GFP-SNX1, which “cell surface GLUT1, Mean 2” value [1, 4] is on record?
**A.** 89.92

**Q.** And the “cell surface GLUT1” value [1, 5]?
**A.** 81.0353

**Q.** What about the “cell surface GLUT1” value [1, 6] of the same substance?
**A.** 95.6847

**Q.** What about the “cell surface GLUT1” value [1, 7] of the same substance?
**A.** 93.0328

**Q.** And the “cell surface ITGa5, Mean 2” value [2, 4]?
**A.** 94.91

**Q.** What about the “cell surface ITGa5” value [2, 5] of the same substance?
**A.** 92.6175

**Q.** And the “cell surface ITGa5” value [2, 6]?
**A.** 101.027

**Q.** And the “cell surface ITGa5” value [2, 7]?
**A.** 91.0806

**Q.** Which results are given for NGIHEEQDQEPQDLFADA [SNX1_75-92]?
**A.** Kd (hSNX27FL R498D): no detectable binding; Kd (hSNX27FL R498D; listed as hSNX175-92): No binding detected; Kd (hSNX27FL K501D): no detectable binding; Kd (hSNX27FL K501D; listed as hSNX175-92): No binding detected; Kd (hSNX27FL K495D): no detectable binding; Kd (hSNX27FL K495D; listed as hSNX175-92): No binding detected

**Q.** With TDFEDLEDGEDLFTSTVS [SNX2_16-33] as the substance, how does the Kd ([3]; hSNX2 16-33 titrated into mSNX27FL preincubated with 2-fold molar excess hSNX1 75-92) read?
**A.** binding is blocked

**Q.** What about the Kd ([3]; hSNX2 16-33 titrated into mSNX27FL preincubated with 2-fold molar excess hSNX1 75-92, listed as hSNX216-33) of the same substance?
**A.** No binding detected
